Reference: patent publication US10227344B2, “CK2 inhibitors, compositions and methods thereof” (Polaris Pharmaceuticals, Inc., priority 2016, dated 2019)

Columns and labels:
Type in all cases: cell-based
786-O = test: Cancer cell panel, cell viability (resazurin): Renal, 786-O; details: 786-O (Renal), 72 hours; labelled drug combined with Example 3
A549 = test: Cancer cell panel, cell viability (resazurin): NSCLC, A549; details: 72 hours, labelled drug combined with Example 3
Procedure: (§1) Cells were plated in 96-well plates and treated for 72 hours with a serially diluted CK2 inhibitor or anti-cancer drug or their combination. The suspension cell lines were treated right after plating, while the adherent cells were allowed to attach overnight prior to the start of the treatment.
(§2) Cell viability was determined by adding resazurin to cell cultures and measuring fluorescence with a plate reader. Relative cell viability was calculated by dividing the cell viability signal from a test sample by that of a non-treated control. […] Bliss Independence and Highest Single Agent models were used to determine if there is synergy, additivity or antagonism between the CK2 inhibitor and an anti-cancer drug.

Ramos = test: Cancer cell panel, cell viability (resazurin): Burkitt's Lymphoma, Ramos; details: 72 hours, labelled drug combined with Example 3
Procedure: as §1, §2

NAMALWA = test: Cancer cell panel, cell viability (resazurin): Burkitt's Lymphoma, NAMALWA; details: 72 hours, labelled drug combined with Example 3
H460 = test: Cancer cell panel, cell viability (resazurin): NSCLC, H460; details: 72 hours, labelled drug combined with Example 3
LnCap = test: Cancer cell panel, cell viability (resazurin): Prostate, LnCap; details: 72 hours, labelled drug combined with Example 3
Procedure: as §1, §2

BxPC3 = test: Cancer cell panel, cell viability (resazurin): Pancreatic, BxPC3; details: 72 hours, labelled drug combined with Example 3
Procedure: as §1, §2

Caov-3 = test: Cancer cell panel, cell viability (resazurin): Ovarian, Caov-3; details: Caov-3 (Ovarian), 72 hours; labelled drug combined with Example 3
A375 = test: Cancer cell panel, cell viability (resazurin): Melanoma, A375; details: 72 hours, labelled drug combined with Example 3
HCT116 = test: Cancer cell panel, cell viability (resazurin): Colon, HCT116; details: 72 hours, labelled drug combined with Example 3
DLD-1 = test: Cancer cell panel, cell viability (resazurin): Colon, DLD-1; details: DLD-1 (Colon), 72 hours; labelled drug combined with Example 3
MDA-MB-157 = test: Cancer cell panel, cell viability (resazurin): Breast, MDA-MB-157; details: MDA-MB-157 (Breast), 72 hours; labelled drug combined with Example 3
BT-474 = test: Cancer cell panel, cell viability (resazurin): Breast, BT-474; details: BT-474 (Breast), 72 hours; labelled drug combined with Example 3
Procedure: as §1, §2

H23 = test: Cancer cell panel, cell viability (resazurin): NSCLC, H23; details: 72 hours, labelled drug combined with Example 3
WM-115 = test: Cancer cell panel, cell viability (resazurin): Melanoma, WM-115; details: WM-115 (Melanoma), 72 hours; labelled drug combined with Example 3
Procedure: as §1, §2

MeWO = test: Cancer cell panel, cell viability (resazurin): Melanoma, MeWO; details: 72 hours, labelled drug combined with Example 3
Procedure: as §1, §2

H1299 = test: Cancer cell panel, cell viability (resazurin): NSCLC, H1299; details: 72 hours, labelled drug combined with Example 3
U266 = test: Cancer cell panel, cell viability (resazurin): multiple myeloma, U266; details: 72 hours, labelled drug combined with Example 3
SKOV-3 = test: Cancer cell panel, cell viability (resazurin): Ovarian, SKOV-3; details: SKOV-3 (Ovarian), 72 hours; labelled drug combined with Example 3
H1975 = test: Cancer cell panel, cell viability (resazurin): NSCLC, H1975; details: 72 hours, labelled drug combined with Example 3
K562 = test: Cancer cell panel, cell viability (resazurin): Leukemia, K562; details: 72 hours, labelled drug combined with Example 3
Colo205 = test: Cancer cell panel, cell viability (resazurin): Colon, Colo205; details: 72 hours, labelled drug combined with Example 3
SK-MEL-24 = test: Cancer cell panel, cell viability (resazurin): Melanoma, SK-MEL-24; details: SK-MEL-24 (Melanoma), 72 hours; labelled drug combined with Example 3
ZR-75-1 = test: Cancer cell panel, cell viability (resazurin): Breast, ZR-75-1; details: ZR-75-1 (Breast), 72 hours; labelled drug combined with Example 3
HL60 = test: Cancer cell panel, cell viability (resazurin): Leukemia, HL60; details: 72 hours, labelled drug combined with Example 3
Raji = test: Cancer cell panel, cell viability (resazurin): Burkitt's Lymphoma, Raji; details: 72 hours, labelled drug combined with Example 3
MOLT4 = test: Cancer cell panel, cell viability (resazurin): Leukemia, MOLT4; details: 72 hours, labelled drug combined with Example 3
LoVo = test: Cancer cell panel, cell viability (resazurin): Colon, LoVo; details: 72 hours, labelled drug combined with Example 3
SK-MEL-3 = test: Cancer cell panel, cell viability (resazurin): Melanoma, SK-MEL-3; details: SK-MEL-3 (Melanoma), 72 hours; labelled drug combined with Example 3
RPMI8226 = test: Cancer cell panel, cell viability (resazurin): multiple myeloma, RPMI8226; details: 72 hours, labelled drug combined with Example 3
Daudi = test: Cancer cell panel, cell viability (resazurin): Burkitt's Lymphoma, Daudi; details: 72 hours, labelled drug combined with Example 3

CC[C@]1(O)C[C@@H]2CN(CCc3c([nH]c4ccccc34)[C@@](C(=O)OC)(c3cc4c(cc3OC)N(C)[C@H]3[C@@](O)(C(=O)OC)[C@H](OC(C)=O)[C@]5(CC)C=CCN6CC[C@]43[C@@H]65)C2)C1 [Vinblastine, vinblastine]
synergy, additivity or antagonism of the combination of Example 3 with the anti-cancer drug (786-O): + + + (Synergy relative to each agent alone (CI = 0.4-0.74 by Bliss Independence Model))
synergy, additivity or antagonism of the combination of Example 3 with the anti-cancer drug (A549): + + + (Synergy relative to each agent alone (CI = 0.4-0.74 by Bliss Independence Model))
synergy, additivity or antagonism of the combination of Example 3 with the anti-cancer drug (Ramos): + (Additive relative to each agent alone (CI = 0.9-1 by Bliss Independence Model and <0.9 by Highest Single Agent Model))
synergy, additivity or antagonism of the combination of Example 3 with the anti-cancer drug (NAMALWA): + (Additive relative to each agent alone (CI = 0.9-1 by Bliss Independence Model and <0.9 by Highest Single Agent Model))
synergy, additivity or antagonism of the combination of Example 3 with the anti-cancer drug (H460): + (Additive relative to each agent alone (CI = 0.9-1 by Bliss Independence Model and <0.9 by Highest Single Agent Model))
synergy, additivity or antagonism of the combination of Example 3 with the anti-cancer drug (LnCap): + (Additive relative to each agent alone (CI = 0.9-1 by Bliss Independence Model and <0.9 by Highest Single Agent Model))
synergy, additivity or antagonism of the combination of Example 3 with the anti-cancer drug (BxPC3): + + + (Synergy relative to each agent alone (CI = 0.4-0.74 by Bliss Independence Model))
synergy, additivity or antagonism of the combination of Example 3 with the anti-cancer drug (Caov-3): + (Additive relative to each agent alone (CI = 0.9-1 by Bliss Independence Model and <0.9 by Highest Single Agent Model))
synergy, additivity or antagonism of the combination of Example 3 with the anti-cancer drug (A375): + (Additive relative to each agent alone (CI = 0.9-1 by Bliss Independence Model and <0.9 by Highest Single Agent Model))
synergy, additivity or antagonism of the combination of Example 3 with the anti-cancer drug (HCT116): + (Additive relative to each agent alone (CI = 0.9-1 by Bliss Independence Model and <0.9 by Highest Single Agent Model))
synergy, additivity or antagonism of the combination of Example 3 with the anti-cancer drug (DLD-1): + + + + (Strong synergy relative to each agent alone (CI < 0.4 by Bliss Independence Model))
synergy, additivity or antagonism of the combination of Example 3 with the anti-cancer drug (MDA-MB-157): + + (Slight synergy relative to each agent alone (CI = 0.75-0.9 by Bliss Independence Model))
synergy, additivity or antagonism of the combination of Example 3 with the anti-cancer drug (BT-474): + (Additive relative to each agent alone (CI = 0.9-1 by Bliss Independence Model and <0.9 by Highest Single Agent Model))
synergy, additivity or antagonism of the combination of Example 3 with the anti-cancer drug (H23): + + (Slight synergy relative to each agent alone (CI = 0.75-0.9 by Bliss Independence Model))
synergy, additivity or antagonism of the combination of Example 3 with the anti-cancer drug (WM-115): + (Additive relative to each agent alone (CI = 0.9-1 by Bliss Independence Model and <0.9 by Highest Single Agent Model))
synergy, additivity or antagonism of the combination of Example 3 with the anti-cancer drug (MeWO): + (Additive relative to each agent alone (CI = 0.9-1 by Bliss Independence Model and <0.9 by Highest Single Agent Model))
synergy, additivity or antagonism of the combination of Example 3 with the anti-cancer drug (H1299): + (Additive relative to each agent alone (CI = 0.9-1 by Bliss Independence Model and <0.9 by Highest Single Agent Model))
synergy, additivity or antagonism of the combination of Example 3 with the anti-cancer drug (U266): + (Additive relative to each agent alone (CI = 0.9-1 by Bliss Independence Model and <0.9 by Highest Single Agent Model))
synergy, additivity or antagonism of the combination of Example 3 with the anti-cancer drug (SKOV-3): + (Additive relative to each agent alone (CI = 0.9-1 by Bliss Independence Model and <0.9 by Highest Single Agent Model))
synergy, additivity or antagonism of the combination of Example 3 with the anti-cancer drug (H1975): + (Additive relative to each agent alone (CI = 0.9-1 by Bliss Independence Model and <0.9 by Highest Single Agent Model))
synergy, additivity or antagonism of the combination of Example 3 with the anti-cancer drug (K562): + (Additive relative to each agent alone (CI = 0.9-1 by Bliss Independence Model and <0.9 by Highest Single Agent Model))
synergy, additivity or antagonism of the combination of Example 3 with the anti-cancer drug (Colo205): + + + (Synergy relative to each agent alone (CI = 0.4-0.74 by Bliss Independence Model))
synergy, additivity or antagonism of the combination of Example 3 with the anti-cancer drug (SK-MEL-24): + (Additive relative to each agent alone (CI = 0.9-1 by Bliss Independence Model and <0.9 by Highest Single Agent Model))
synergy, additivity or antagonism of the combination of Example 3 with the anti-cancer drug (ZR-75-1): + (Additive relative to each agent alone (CI = 0.9-1 by Bliss Independence Model and <0.9 by Highest Single Agent Model))
synergy, additivity or antagonism of the combination of Example 3 with the anti-cancer drug (HL60): + + (Slight synergy relative to each agent alone (CI = 0.75-0.9 by Bliss Independence Model))
synergy, additivity or antagonism of the combination of Example 3 with the anti-cancer drug (Raji): + (Additive relative to each agent alone (CI = 0.9-1 by Bliss Independence Model and <0.9 by Highest Single Agent Model))
synergy, additivity or antagonism of the combination of Example 3 with the anti-cancer drug (MOLT4): − (Slightly antagonistic relative to each agent alone (CI = 1.1-1.2 by Highest Single Agent Model))
synergy, additivity or antagonism of the combination of Example 3 with the anti-cancer drug (LoVo): + (Additive relative to each agent alone (CI = 0.9-1 by Bliss Independence Model and <0.9 by Highest Single Agent Model))
synergy, additivity or antagonism of the combination of Example 3 with the anti-cancer drug (SK-MEL-3): + (Additive relative to each agent alone (CI = 0.9-1 by Bliss Independence Model and <0.9 by Highest Single Agent Model))
synergy, additivity or antagonism of the combination of Example 3 with the anti-cancer drug (RPMI8226): + (Additive relative to each agent alone (CI = 0.9-1 by Bliss Independence Model and <0.9 by Highest Single Agent Model))
synergy, additivity or antagonism of the combination of Example 3 with the anti-cancer drug (Daudi): + (Additive relative to each agent alone (CI = 0.9-1 by Bliss Independence Model and <0.9 by Highest Single Agent Model))
